For this experiment, the target named is T1, human NK3 receptor (Homo sapiens, UniProt P29371).
T1 construct: expressed in transfected cells; host or cells: HEK293 cells (transient expression), membrane preparation
T1 sequence (P29371 1-465): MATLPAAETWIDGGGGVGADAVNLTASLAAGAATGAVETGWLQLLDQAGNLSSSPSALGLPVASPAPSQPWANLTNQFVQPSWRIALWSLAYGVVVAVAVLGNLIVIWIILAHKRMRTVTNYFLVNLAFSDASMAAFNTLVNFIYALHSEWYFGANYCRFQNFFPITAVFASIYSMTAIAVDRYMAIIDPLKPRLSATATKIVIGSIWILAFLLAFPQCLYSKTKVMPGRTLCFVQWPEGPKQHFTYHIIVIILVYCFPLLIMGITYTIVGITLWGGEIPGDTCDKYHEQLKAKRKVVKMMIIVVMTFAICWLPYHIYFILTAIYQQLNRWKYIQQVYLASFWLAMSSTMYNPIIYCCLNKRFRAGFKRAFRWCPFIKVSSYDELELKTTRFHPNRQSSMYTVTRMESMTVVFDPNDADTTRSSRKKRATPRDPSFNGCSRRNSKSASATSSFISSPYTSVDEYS
The experiment in a line: [3H]SR142801 competition binding assay (hNK3 receptor binding). The note with it: [3H]SR142801 radioligand; membranes from HEK293 cells transiently expressing recombinant human NK3 receptor; Ki by Cheng-Prussoff; read-out: KiNK3 h. The method, then: [^3H]SR^142801 Competition Binding Assay
hNK3 receptor binding experiment were performed using [^3H]SR^142801 (Catalog No. TRK1035, specific activity: 74.0 Ci/mmol, Amersham, GE Healthcare UK limited, Buckinghamshire, UK) and membrane isolated from HEK293 cells transiently expressing recombinant human NK3 receptor. After thawing, the membrane homogenates were centrifuged at 48,000×g for 10 min at 4° C., the pellets were resuspended in the 50 mM Tris-HCl, 4 mM MnCl2, 1 μM phosphoramidon, 0.1% BSA binding buffer at pH 7.4 to a final assay concentration of 5 μg protein/well. […] At the end of the incubation, membranes were filtered onto unitfilter (96-well white microplate with bonded GF/C filter preincubated 1 h in 0.3% PEI +0.3% BSA, Packard BioScience, Meriden, Conn.) with a Filtermate 196 harvester (Packard BioScience) and washed 4 times with ice-cold 50 mM Tris-HCl, pH 7.4 buffer. Nonspecific binding was measured in the presence of 10 μM SB222200 for both radioligands. The radioactivity on the filter was counted (5 min) on a Packard Top-count microplate scintillation counter with quenching correction after addition of 45 μl of microscint 40 (Canberra Packard S.A., Zutrich, Switzerland) and shaking for 1 h. Inhibition curves were fitted according to the Hill equation: y=100/(1+(x/IC50)^nH), where nH=slope factor using Excel-fit 4 software (Microsoft). IC50 values were derived from the inhibition curve and the affinity constant (Ki) values were calculated using the Cheng-Prussoff equation Ki=IC50/(1+[L]/KD) where [L] is the concentration of radioligand and KD is its dissociation constant at the receptor, derived from the saturation isotherm. All experiments were performed in duplicate and the mean ± standard error (SEM) of the individual Ki values was calculated.
For the compound `C[C@@H](Oc1ccc(Cl)cn1)[C@@H]1CN(C(=O)c2ccc(N(C)C)nc2)C[C@H]1c1ccc(Cl)c(Cl)c1` (racemic) [Example 19, [(3SR,4RS)-3-[(RS)-1-(5-Chloro-pyridin-2-yloxy)-ethyl]-4-(3,4-dichloro-phenyl)-pyrrolidin-1-yl]-(6-dimethylamino-pyridin-3-yl)-methanone], the Ki was determined as 5.8 nM.

With `CSc1ncc(C(=O)N2C[C@@H]([C@@H](C)Oc3ccc(Cl)cn3)[C@H](c3ccc(Cl)c(Cl)c3)C2)cn1` (racemic) [Example 48, [(3SR,4RS)-3-[(RS)-1-(5-Chloro-pyridin-2-yloxy)-ethyl]-4-(3,4-dichloro-phenyl)-pyrrolidin-1-yl]-(2-methylsulfanyl-pyrimidin-5-yl)-methanone], the Ki turned out to be 42.6 nM.

`COc1ccc(C(=O)N2C[C@@H]([C@@H](C)Oc3ccc(Cl)cn3)[C@H](c3ccc(Cl)c(Cl)c3)C2)cn1` (racemic) [Example 11, [(3SR,4RS)-3-[(RS)-1-(5-Chloro-pyridin-2-yloxy)-ethyl]-4-(3,4-dichloro-phenyl)-pyrrolidin-1-yl]-(6-methoxy-pyridin-3-yl)-methanone]: the Ki is 11.8 nM.

For the compound `C[C@H](Oc1ccc(C(F)(F)F)cn1)[C@H]1CN(C(=O)c2ccnc(Cl)c2)C[C@@H]1c1ccc(Cl)c(Cl)c1` (racemic) [Example 82, (2-Chloro-pyridin-4-yl)-{(3SR,4RS)-3-(3,4-dichloro-phenyl)-4-[(SR)-1-(5-trifluoromethyl-pyridin-2-yloxy)-ethyl]-pyrrolidin-1-yl}-methanone], the Ki turned out to be 3.2 nM.

On to `C[C@H](Oc1ccc(C#N)cn1)[C@H]1CN(C(=O)c2ccc(C(F)(F)F)nc2)C[C@@H]1c1ccc(Cl)c(Cl)c1` (racemic) [Example 72, 6-{(SR)-1-[(3RS,4SR)-4-(3,4-Dichloro-phenyl)-1-(6-trifluoromethyl-pyridine-3-carbonyl)-pyrrolidin-3-yl]-ethoxy}-nicotinonitrile], for which the Ki stood at 20.9 nM.

In the case of `Cc1noc(-c2ccc(C(=O)N3C[C@H]([C@H](C)Oc4ccc(C(F)(F)F)cn4)[C@@H](c4ccc(Cl)c(Cl)c4)C3)cc2)n1` (racemic) [Example 83, {(3SR,4RS)-3-(3,4-Dichloro-phenyl)-4-[(SR)-1-(5-trifluoromethyl-pyridin-2-yloxy)-ethyl]-pyrrolidin-1-yl}-[4-(3-methyl-[1,2,4]oxadiazol-5-yl)-phenyl]-methanone], the Ki is 0.6 nM.

As for `C[C@@H](Oc1ccc(Cl)cn1)[C@@H]1CN(C(=O)c2ccc(S(C)(=O)=O)nc2)C[C@H]1c1ccc(Cl)c(Cl)c1` (racemic) [Example 47, [(3SR,4RS)-3-[(RS)-1-(5-Chloro-pyridin-2-yloxy)-ethyl]-4-(3,4-dichloro-phenyl)-pyrrolidin-1-yl]-(6-methanesulfonyl-pyridin-3-yl)-methanone], the Ki came out at 12.5 nM.

With `COc1ccc(C(=O)N2C[C@@H]([C@@H](C)Oc3ccc(C(F)(F)F)cc3)[C@H](c3ccc(Cl)c(Cl)c3)C2)cn1` (racemic) [Example 9, {(3RS,4SR)-3-(3,4-Dichloro-phenyl)-4-[(RS)-1-(4-trifluoromethyl-phenoxy)-ethyl]-pyrrolidin-1-yl}-(6-methoxy-pyridin-3-yl)-methanone], the Ki was 79.8 nM.

For the compound `Cc1ncc(C(=O)N2C[C@H]([C@H](C)Oc3ccc(C#N)cn3)[C@@H](c3ccc(Cl)c(F)c3)C2)cn1` [Example 91, 6-{(S)-1-[(3R,4S)-4-(4-Chloro-3-fluoro-phenyl)-1-(2-methyl-pyrimidine-5-carbonyl)-pyrrolidin-3-yl]-ethoxy}-nicotinonitrile], the Ki stood at 18.4 nM.

In the case of `C[C@H](Oc1ccc(C(F)(F)F)cn1)[C@H]1CN(C(=O)c2ccc(Cl)nc2)C[C@@H]1c1ccc(Cl)c(Cl)c1` (racemic) [Example 81, (6-Chloro-pyridin-3-yl)-{(3SR,4RS)-3-(3,4-dichloro-phenyl)-4-[(SR)-1-(5-trifluoromethyl-pyridin-2-yloxy)-ethyl]-pyrrolidin-1-yl}-methanone], the Ki is 4.8 nM.

As for `CCc1noc(-c2ccc(C(=O)N3C[C@H]([C@H](C)Oc4ccc(C#N)cn4)[C@@H](c4ccc(Cl)c(Cl)c4)C3)cc2)n1` (racemic) [Example 62, 6-((SR)-1-{(3RS,4SR)-4-(3,4-Dichloro-phenyl)-1-[4-(3-ethyl-[1,2,4]oxadiazol-5-yl)-benzoyl]-pyrrolidin-3-yl}-ethoxy)-nicotinonitrile], the Ki is 59.4 nM.

Turning to `C[C@H](Oc1ccc(C#N)cn1)[C@H]1CN(C(=O)c2ccc(C#N)cc2F)C[C@@H]1c1ccc(Cl)c(Cl)c1` (racemic) [Example 67, 6-{(SR)-1-[(3RS,4SR)-1-(4-Cyano-2-fluoro-benzoyl)-4-(3,4-dichloro-phenyl)-pyrrolidin-3-yl]-ethoxy}-nicotinonitrile], the Ki worked out at 5.8 nM.

Turning to `COc1cc(C(=O)N2C[C@@H]([C@@H](C)Oc3ccc(Cl)cn3)[C@H](c3ccc(Cl)c(Cl)c3)C2)ccn1` (racemic) [Example 18, [(3SR,4RS)-3-[(RS)-1-(5-Chloro-pyridin-2-yloxy)-ethyl]-4-(3,4-dichloro-phenyl)-pyrrolidin-1-yl]-(2-methoxy-pyridin-4-yl)-methanone], the Ki was found to be 22.7 nM.

As to `C[C@H](Oc1ccc(C#N)cn1)[C@H]1CN(C(=O)c2ccc(S(C)(=O)=O)nc2)C[C@@H]1c1ccc(Cl)c(Cl)c1` (racemic) [Example 66, 6-{(SR)-1-[(3RS,4SR)-4-(3,4-Dichloro-phenyl)-1-(6-methanesulfonyl-pyridine-3-carbonyl)-pyrrolidin-3-yl]-ethoxy}-nicotinonitrile], the Ki is 3.8 nM.

Regarding `Cc1cc(C(=O)N2C[C@H]([C@H](C)Oc3ccc(C#N)cn3)[C@@H](c3ccc(Cl)cc3)C2)cnn1` [Example 111, 6-{(S)-1-[(3R,4S)-4-(4-Chloro-phenyl)-1-(6-methyl-pyridazine-4-carbonyl)-pyrrolidin-3-yl]-ethoxy}-nicotinonitrile], the Ki amounted to 3.7 nM.

For `Cc1cc(C(=O)N2C[C@H]([C@H](C)Oc3ccc(Cl)cn3)[C@@H](c3ccc(F)c(F)c3)C2)cnn1` [Example 104, [(3R,4S)-3-[(S)-1-(5-Chloro-pyridin-2-yloxy)-ethyl]-4-(3,4-difluoro-phenyl)-pyrrolidin-1-yl]-(6-methyl-pyridazin-4-yl)-methanone], the Ki turned out to be 4 nM.

Turning to `C[C@H](Oc1ccc(C#N)cn1)[C@H]1CN(C(=O)c2ccc(OCC(F)(F)F)nc2)C[C@@H]1c1ccc(Cl)c(Cl)c1` (racemic) [Example 76, 6-((SR)-1-{(3RS,4SR)-4-(3,4-Dichloro-phenyl)-1-[6-(2,2,2-trifluoro-ethoxy)-pyridine-3-carbonyl]-pyrrolidin-3-yl}-ethoxy)-nicotinonitrile], the Ki was determined as 3.5 nM.

`Cc1cc(C(=O)N2C[C@@H]([C@@H](C)Oc3ccc(Cl)cn3)[C@H](c3ccc(Cl)c(Cl)c3)C2)ccn1` (racemic) [Example 15, [(3SR,4RS)-3-[(RS)-1-(5-Chloro-pyridin-2-yloxy)-ethyl]-4-(3,4-dichloro-phenyl)-pyrrolidin-1-yl]-(2-methyl-pyridin-4-yl)-methanone]: the Ki stood at 6.3 nM.

On to `C[C@H](Oc1ccc(C(F)(F)F)cn1)[C@H]1CN(C(=O)c2ccc(-n3cccn3)nc2)C[C@@H]1c1ccc(Cl)c(Cl)c1` (racemic) [Example 80, {(3SR,4RS)-3-(3,4-Dichloro-phenyl)-4-[(SR)-1-(5-trifluoromethyl-pyridin-2-yloxy)-ethyl]-pyrrolidin-1-yl}-(6-pyrazol-1-yl-pyridin-3-yl)-methanone], for which the Ki was 1.5 nM.

For the compound `COc1ccc(C(=O)N2C[C@@H]([C@@H](C)Oc3ncc(F)cn3)[C@H](c3ccc(Cl)c(Cl)c3)C2)cn1` (racemic) [Example 25, {(3RS,4SR)-3-(3,4-Dichloro-phenyl)-4-[(RS)-1-(5-fluoro-pyrimidin-2-yloxy)-ethyl]-pyrrolidin-1-yl}-(6-methoxy-pyridin-3-yl)-methanone], the Ki came to 63.3 nM.

`C[C@@H](Oc1ccc(Cl)cn1)[C@@H]1CN(C(=O)c2ccc(N(C)C)cc2)C[C@H]1c1ccc(Cl)c(Cl)c1` (racemic) [Example 13, [(3SR,4RS)-3-[(RS)-1-(5-Chloro-pyridin-2-yloxy)-ethyl]-4-(3,4-dichloro-phenyl)-pyrrolidin-1-yl]-(4-dimethylamino-phenyl)-methanone]: the Ki worked out at 50 nM.

For the origin of these results see patent US8012998B2, “Pyrrolidine aryl-ether as NK-3 receptor antagonists” (Hoffmann—LA Roche Inc., priority 2007, dated 2011).
